Assay results: PubChem BioAssay (NCI)
“And” between values parts separate entries of the source, which are not always exact repeats. Equal values may be shown once.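 Results reflect a 48-hour exposure of cells in 96-well plates to compound at five concentrations. GI50 marks 50% less growth. The concentration for full growth arrest is given as TGI.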

Experiments:
Test in all cases: DTP human tumour cell line panel, 48 h
[1] = system: SN12C renal
[2] = system: HL-60(TB) leukemia
[3] = system: HCT-15 colon
[4] = system: K-562 leukemia
[5] = system: SNB-75 CNS
[6] = system: HCC-2998 colon
[7] = system: MDA-MB-231 breast
[8] = system: SR leukemia

For `CN(C)c1ccc(/C=C(\C#N)c2ccccc2)cc1`, the GI50 [1] was 0.553 µM and 0.788 µM and 0.764 µM, the TGI [1] was > 100 µM and the GI50 [2] was 0.218 µM and 0.34 µM. For the same compound, the TGI [2] was 11.8 µM, the GI50 [3] was 0.3 µM and 0.348 µM and 0.383 µM and the TGI [3] was > 100 µM. For the same compound, the GI50 [4] was 0.194 µM and 0.337 µM and 0.35 µM, the TGI [4] was > 100 µM and the GI50 [5] was 0.361 µM and 0.626 µM and 0.299 µM. For the same compound, the TGI [5] was > 100 µM, the GI50 [6] was 1.31 µM and 3.24 µM and 1.62 µM and the TGI [6] was 31.7 µM and 57.4 µM and > 100 µM. The GI50 [7] was 1.66 µM and 1.97 µM, the TGI [7] was 78.4 µM and 76.7 µM and the GI50 [8] was 0.0866 µM and 0.308 µM and 0.255 µM. For the same compound, the TGI [8] was 19 µM and 37.6 µM.
`CC(=O)N(C)c1cc(NCc2ccccc2)ccc1OCc1ccccc1` gave a TGI [1] of 33.1 µM, a TGI [2] of 77.9 µM and a TGI [3] of 39.2 µM. For the same compound, the TGI [4] was 63.5 µM, the TGI [5] was 41.5 µM and the TGI [6] was 35 µM. The TGI [7] was 30.2 µM and the TGI [8] was 32.8 µM.
In the case of `O=C(O)c1ccc(NCc2nc3ccccc3[nH]2)cc1`, the GI50 [1] is reported as > 100 µM, the TGI [1] is reported as > 100 µM and the GI50 [2] is reported as > 100 µM. The TGI [2] was > 100 µM, the GI50 [3] was > 100 µM and the TGI [3] was > 100 µM. The GI50 [4] was > 100 µM, the TGI [4] was > 100 µM and the GI50 [5] was > 100 µM. For the same compound, the TGI [5] was > 100 µM, the GI50 [6] was > 100 µM and the TGI [6] was > 100 µM. For the same compound, the GI50 [7] was > 100 µM, the TGI [7] was > 100 µM and the GI50 [8] was > 100 µM. For the same compound, the TGI [8] was > 100 µM.
In the case of `[N-]=[N+]=NCCCn1c2c(c3ccc([N+](=O)[O-])cc3c1=O)C(=O)c1cc(I)ccc1-2`, the GI50 [1] is reported as 3.89 µM, the TGI [1] is reported as > 100 µM and the GI50 [2] is reported as 3.79 µM. For the same compound, the TGI [2] was 26.3 µM, the GI50 [3] was 18.5 µM and the TGI [3] was > 100 µM. For the same compound, the GI50 [4] was 5.15 µM, the TGI [4] was > 100 µM and the GI50 [5] was 8.63 µM. The TGI [5] was > 100 µM, the GI50 [6] was 11.7 µM and the TGI [6] was 59.3 µM. The GI50 [7] was > 100 µM, the TGI [7] was > 100 µM and the GI50 [8] was 0.344 µM. The TGI [8] was 2.87 µM.
For `CC(=O)OC1CC2C(C)(C)CCC[C@]2(C)C2=C1C(O)=C(C(C)C)C(=O)C2=O` (stereo partly drawn), the GI50 [1] was 0.801 µM, the TGI [1] was 7.58 µM and the GI50 [2] was 0.613 µM. For the same compound, the TGI [2] was 4.23 µM, the GI50 [3] was 0.351 µM and the TGI [3] was 2.04 µM. For the same compound, the GI50 [4] was 0.919 µM, the TGI [4] was > 100 µM and the GI50 [5] was 1.2 µM. For the same compound, the TGI [5] was 3.03 µM, the GI50 [6] was 0.228 µM and the TGI [6] was 0.546 µM. For the same compound, the GI50 [7] was 0.477 µM, the TGI [7] was 3.74 µM and the GI50 [8] was 0.39 µM. For the same compound, the TGI [8] was 2.11 µM.
`C[C@@H]1CC[C@H]2[C@@H](C)C(OC/C=C/COC3O[C@@H]4O[C@@]5(C)CC[C@H]6[C@H](C)CC[C@@H]([C@H]3C)[C@@]46OO5)O[C@@H]3O[C@@]4(C)CC[C@@H]1[C@]32OO4` (stereo partly drawn) was tested, and the GI50 [1] was < 0.0147 µM, the TGI [1] was 2.06 µM and the GI50 [2] was < 0.01 µM. The GI50 [3] was < 0.01 µM, the TGI [3] was > 33 µM and the GI50 [4] was < 0.0201 µM. For the same compound, the TGI [4] was > 41.6 µM, the GI50 [6] was 0.0376 µM and the TGI [6] was 12.1 µM. For the same compound, the GI50 [7] was < 0.0269 µM, the TGI [7] was 1.11 µM and the GI50 [8] was < 0.01 µM. The TGI [8] was 3.85 µM.
In the case of `COc1ccc(C2CC(c3ccccc3)=NN2C(=O)c2cc(OC)c(OC)c(OC)c2)cc1O` (stereo not drawn), the GI50 [1] is reported as 0.766 µM, the TGI [1] is reported as 34.4 µM and the GI50 [2] is reported as 0.244 µM. For the same compound, the TGI [2] was 1.05 µM, the GI50 [3] was 0.352 µM and the TGI [3] was 40.2 µM. The GI50 [4] was 0.297 µM, the TGI [4] was 27.1 µM and the GI50 [5] was 0.422 µM. For the same compound, the TGI [5] was > 100 µM, the GI50 [6] was 0.724 µM and the TGI [6] was 4.08 µM. The GI50 [7] was 0.902 µM, the TGI [7] was 18.1 µM and the GI50 [8] was 0.302 µM. It also gave a TGI [8] of 5.85 µM.
With `CCC1=C[C@@H]2CN(C1)Cc1c([nH]c3ccccc13)[C@@](C(=O)OC)(c1cc3c(cc1OC)N(C)[C@H]1[C@@](O)(C(=O)OC)[C@H](OC(C)=O)[C@]4(CC)C=CCN5CC[C@]31[C@@H]54)C2` the GI50 [1] was < 0.0214 µM, the TGI [1] was 43.7 µM and the GI50 [2] was < 0.01 µM. For the same compound, the TGI [2] was < 0.01 µM, the GI50 [3] was 0.141 µM and the TGI [3] was 6.8 µM. For the same compound, the GI50 [4] was < 0.01 µM, the TGI [4] was 18.9 µM and the GI50 [5] was < 0.01 µM. For the same compound, the TGI [5] was 7.92 µM, the GI50 [6] was < 0.011 µM and the TGI [6] was 1.86 µM. For the same compound, the GI50 [7] was < 0.018 µM, the TGI [7] was 8.04 µM and the GI50 [8] was < 0.01 µM. It also gave a TGI [8] of 1.95 µM.
`CS(=O)(=O)O[C@H]1C(=O)N(c2cc3c4ccccc4ccc3c3ccccc23)[C@@H]1c1ccccn1` was tested, and the GI50 [1] was 0.737 µM, the TGI [1] was > 100 µM and the GI50 [2] was 0.309 µM. For the same compound, the TGI [2] was > 100 µM, the GI50 [3] was 0.419 µM and the TGI [3] was > 100 µM. The GI50 [5] was 0.248 µM, the TGI [5] was > 100 µM and the GI50 [6] was 1.25 µM. The TGI [6] was > 100 µM, the GI50 [7] was 1.07 µM and the TGI [7] was 14 µM. For the same compound, the GI50 [8] was 0.384 µM and the TGI [8] was > 100 µM.
In the case of `Cc1cc2c(C(=O)NCC#N)cccc2n1-c1nc2c(c(NCc3ccccc3)n1)CCCC2`, the GI50 [1] is reported as 0.31 µM, the TGI [1] is reported as 0.904 µM and the GI50 [2] is reported as 0.311 µM. For the same compound, the TGI [2] was > 100 µM, the GI50 [3] was 0.192 µM and the TGI [3] was 0.404 µM. For the same compound, the GI50 [4] was 0.372 µM, the TGI [4] was > 100 µM and the GI50 [5] was 0.345 µM. For the same compound, the TGI [5] was 1.74 µM, the GI50 [6] was 0.178 µM and the TGI [6] was 0.357 µM. It also gave a GI50 [7] of 0.273 µM, a TGI [7] of 0.59 µM and a GI50 [8] of 0.257 µM. The TGI [8] was 10.3 µM.
`C=C1C[C@@H](O)[C@@H](Br)C(C)(C)[C@]12CCC(C)(Br)C(Cl)C2` (stereo partly drawn) was tested, and the GI50 [1] was 16.5 µM, the TGI [1] was > 50 µM and 31.3 µM and the TGI [2] was 11.8 µM. The GI50 [3] was 23.7 µM, the TGI [3] was > 50 µM and 52.4 µM and the GI50 [4] was 19.2 µM. For the same compound, the TGI [4] was > 50 µM and 42.4 µM, the GI50 [5] was 18.5 µM and the TGI [5] was > 50 µM and 34.6 µM. For the same compound, the GI50 [6] was 17.1 µM, the TGI [6] was > 50 µM and 30.8 µM and the GI50 [7] was 16.8 µM. For the same compound, the TGI [7] was > 50 µM and 31.5 µM, the GI50 [8] was 18.9 µM and the TGI [8] was > 50 µM and 37.2 µM.
`CON=C1C[C@]2(C[C@@H]3C[C@@H](C/C=C(\C)C[C@@H](C)/C=C/C=C4\CO[C@@H]5[C@H](O)C(C)=C[C@@H](C(=O)O3)[C@]45O)O2)O[C@H](/C(C)=C/C(C)C)[C@H]1C` was tested, and the GI50 [1] was 14 µM, the TGI [1] was 28.3 µM and the GI50 [2] was 2.48 µM. It also gave a TGI [2] of 5.92 µM, a GI50 [3] of 14.9 µM and a TGI [3] of 30.9 µM. The GI50 [4] was 3.69 µM, the TGI [4] was 10.8 µM and the GI50 [5] was 18.7 µM. For the same compound, the TGI [5] was 35.3 µM, the GI50 [6] was 12.1 µM and the TGI [6] was 26.9 µM. It also gave a GI50 [7] of 11.2 µM, a TGI [7] of 24.9 µM and a GI50 [8] of 3.91 µM. The TGI [8] was 40.9 µM.
`Nc1nc(=S)c2ncn(C3OC(CO)C(O)C3O)c2[nH]1` (stereo not drawn) was tested, and the GI50 [1] was 3.98 µM, the TGI [1] was > 100 µM and the GI50 [2] was 1.67 µM. For the same compound, the TGI [2] was 11 µM, the GI50 [3] was 0.92 µM and the TGI [3] was > 100 µM. For the same compound, the GI50 [4] was 0.49 µM, the TGI [4] was > 61.1 µM and the GI50 [5] was 0.688 µM. For the same compound, the TGI [5] was > 100 µM, the GI50 [6] was 0.7 µM and the TGI [6] was 5 µM. For the same compound, the GI50 [7] was 1.39 µM and the TGI [7] was > 100 µM.
With `Cc1ccc(/C=C(/C#N)n2nnc3ncccc32)cc1` the GI50 [1] was 2.6 µM, the TGI [1] was 9.66 µM and the GI50 [2] was 2.99 µM. The TGI [2] was 9.92 µM, the GI50 [3] was 1.45 µM and the TGI [3] was 16.7 µM. For the same compound, the GI50 [4] was 0.545 µM, the TGI [4] was > 100 µM and the GI50 [5] was 2.98 µM. The TGI [5] was > 100 µM, the GI50 [6] was 3.37 µM and the TGI [6] was 12.2 µM. The GI50 [7] was 2.41 µM, the TGI [7] was 8.44 µM and the GI50 [8] was 0.765 µM. It also gave a TGI [8] of 26.8 µM.
